Where two headings read alike, the source gives them in different places.
Key:
Candida albicans = type: cell-based
[1] = tested on: HT-29 cells (human colon adenocarcinoma cells); conditions: for cancer cells killed: 455 nm light 72 J/cm^2
Description: HT-29 cells (human colon adenocarcinoma cells) were inoculated into each well of a cell incubation microplate (subjected to surface treatment) having 96 wells and grown in a CO2 incubator at 37° C. in the presence of 5% of CO2 until the number of cells reached about 2000 cells/well. 90 μL of McCoy's 5a Medium (the name of a product manufactured by FUJIFILM Wako Pure Chemical Corporation) was used as the cell culture medium. Next, after each treatment described below in (1) to (6) was performed, the medium was replaced with 90 μL of McCoy's 5a Medium and the cells were incubated in the CO2 incubator for 2 days under the above conditions. 10 μL of a WST-8 solution (solution in a product “WST-8 Cell Proliferation Kit”, Funakoshi Co., Ltd.) was added to measure the number of living cells, then incubation was performed in the CO2 incubator (37° C.) for 5 hours, and thereafter an absorbance of 450 nm was measured using a microplate reader. The percentage of the absorbance of each sample relative to an absorbance when treatment (1), which was a control experiment, was performed was calculated. The absorbance when treatment (1) was performed was almost the same as the absorbance of untreated cells.
Conditions of treatments (1) to (6) and percentages of absorbances of samples obtained through the treatments were as follows. The amount by which the percentage of an absorbance decreased from 100% is presumed to be substantially equal to a death rate (%) of cancer cells.
(1) The medium was replaced with 100 μL of PBS (pH: 7.0)** and left to stand at room temperature for 30 minutes. ------ Absorbance percentage: 100% (2) The medium was replaced with 100 μL of PBS (pH: 7.0) and irradiated with light (radiant energy: 72 J/cm^2) at room temperature for 30 minutes using an LED (product name: M455L3, Thorlabs Japan Inc., wavelength: 455 nm, irradiance: 40 mW/cm^2). ------ Absorbance percentage: 96% (3) The medium was replaced with 100 μL of PBS (pH: 7.0) containing 1.4 mM of NaClO2 and left to stand at room temperature for 30 minutes. ------ Absorbance percentage: 97% (4) The medium was replaced with 100 μL of PBS (pH: 7.0) containing 1.4 mM of NaClO2 and irradiated with light (radiant energy: 72 J/cm^2) at room temperature for 30 minutes using an LED (product name: M455L3, Thorlabs Japan Inc., wavelength: 455 nm, irradiance: 40 mW/cm^2). ------ Absorbance percentage: 11% (5) The medium was replaced with 100 μL of PBS (pH: 7.0) containing 2.8 mM of NaClO2 and left to stand at room temperature for 30 minutes. ------ Absorbance percentage: 97% (6) The medium was replaced with 100 μL of PBS (pH: 7.0) containing 2.8 mM of NaClO2 and irradiated with light (radiant energy: 72 J/cm^2) at room temperature for 30 minutes using an LED (product name: M455L3, Thorlabs Japan Inc., wavelength: 455 nm, irradiance: 40 mW/cm^2). ------ Absorbance percentage: 6% **: A phosphate-buffered saline whose pH was adjusted to 7.0 and osmotic pressure was adjusted to be the same as that of a standard phosphate-buffered saline having a pH of 7.5 was used. Specifically, PBS (pH: 7.0) had the following composition: NaCl: 140 mM, KCl: 0.43 mM, KH2PO4: 3.72 mM, Na2HPO4: 5.81 mM.

[2] = tested on: Spores of Bacillus subtilis; type: cell-based
Description: Bacillus subtilis was scattered over a nutrient agar medium and incubated at 37° C. for 1 week. Colonies were scraped off from the agar medium and washed by being suspended in a physiological saline solution, and Bacillus subtilis collected through centrifugal separation was taken to be cell spores. The cell spores were suspended in a physiological saline solution at a concentration of about 6×10^6 spores/mL. The suspension of cell spores was prepared so as to have the target concentration of cell spores by being diluted with purified water as appropriate.
On the other hand, a reagent having a pH of 7.0 was prepared and irradiated with light using the LED in the same manner as that described above in (1) to generate radicals. The reagent (chlorine dioxide radical concentration: 600 μmol/L) in which radicals were generated was diluted with a 10 mmol/L potassium phosphate buffer solution (pH: 7.0) as appropriate to prepare samples containing radicals at predetermined concentrations. […] Thereafter, the liquid mixture was scattered over brain heart agar, incubation was performed at 37° C. for 12 hours, and then the number of colonies was counted.
As control 1, a reagent having a pH of 7.0 that was not irradiated with light was added to the suspension of cell spores and was left to stand, and incubation was performed as described above, and then the number of colonies was counted. […]

Yeast cells = type: cell-based
Description: Yeast was inoculated into a modified YPE liquid medium (2% of polypeptone, 1% of yeast extract, 2% of ethanol, and 0.2% of glucose) and was incubated at 30° C. for 1 day. A bacterial liquid was collected from the liquid medium and washed by being suspended in purified water, and yeast cells collected through centrifugal separation were taken as a specimen. The cells were suspended in a 100 mmol/L potassium phosphate buffer solution (pH: 7.0) at a concentration of about 5×10^8 cells/mL. Also, the suspension of cells was diluted with a 100 mmol/L potassium phosphate buffer solution as appropriate so as to have a target concentration of cells.
The reagent containing chlorine dioxide radicals prepared as described above in (3) was diluted with a 10 mmol/L potassium phosphate buffer solution (pH: 7.0) to prepare a sample containing chlorine dioxide radicals at a concentration of 20 μmol/L. On the other hand, the suspension of cells prepared in (1) was diluted with a 10 mmol/L potassium phosphate buffer solution (pH: 7.0) such that the concentration of cells was about 5×10^8 cells/mL. Next, 0.5 mL of the sample containing chlorine dioxide radicals was mixed with 0.5 mL of the suspension of cell spores, and the liquid mixture was left to stand at room temperature for 30 minutes. Thereafter, the liquid mixture was scattered over brain heart agar and incubated at 30° C. for 1 day, and then the number of colonies was counted.
Then, similarly to Experiment 1 described above, 0.5 mL of a yeast solution having a yeast cell concentration of about 5×10^8 cells/mL was added to 0.5 mL of the reagent, and 1 mL of the resultant solution was placed in a disposable cell UV (product name: Two-face transparent semimicro #1941, Nikko Hansen & CO., LTD.), and was irradiated with light using an LED via a side surface of the cell. […] The radiant energy under the above condition was calculated as 37.8 J/cm^2. The solution after the treatment was scattered over brain heart agar after being diluted as appropriate, and incubated at 30° C. for 1 day, and then the number of colonies was counted.

[3] = ClO2 radical concentration over time (absorption spectrum); type: physicochemical; conditions: photoirradiation not performed
Description: 1 mL of each of the reagents was placed in a disposable cell UV (product name: Two-face transparent semimicro #1941,Nikko Hansen & CO., LTD.), and was irradiated with light via a side surface of the cell using an LED in the same manner as in Example 1 (1) described above. The photoirradiation was performed similarly to Example 1 described above, unless otherwise specified. […] Then, an absorption spectrum was measured over time from the start of irradiation using the double optical path spectrophotometer (product name: UV-2400PC, SHIMADZU CORPORATION), and the molar concentration of chlorite ions (ClO2^−) was calculated from an absorbance at the minimum absorption of the wavelength of 260 nm, and the molar concentration of chlorine dioxide radicals (ClO2^⋅) was calculated from an absorbance at the maximum absorption of the wavelength of 359 nm.

respiratory chain [4] = assay: Electron transfer activity of the respiratory chain in Candida cells; type: cell-based, Candida albicans; conditions: in proportion to the reduction in survival rate
Description: (§1) Accordingly, it is supposed that the respiratory chain in mitochondria was one target portion of the yeast cells and the Candida cells treated with chlorine dioxide radicals. It is thought that when the respiratory chain is damaged, ROS (Reactive Oxygen Species) are generated, which leads to apoptosis and the death of cells.

respiratory chain [5] = assay: Electron transfer activity of the respiratory chain in yeast cells; type: cell-based; conditions: in proportion to the reduction in survival rate
Description: as §1

[6] = control: sodium chlorite aqueous solution not irradiated with light, 25° C. 1 hour
[7] = Experiment 1: 20 μmol/L chlorine dioxide radical sample mixed 1:1 with cell suspension, room temperature 30 minutes

| Compound | survival rate relative to untreated (Candida albicans; as Experiment 2 (sodium chlorite with LED irradiation)) | survival rate (Candida albicans; [6]) | cancer cells killed ([1]; 1.4 mM) | cancer cells killed ([1]; 2.8 mM) [%] | Absorbance percentage (450 nm, relative to treatment (1)) ([1]; treatment (3): 1.4 mM, PBS pH 7.0, room temperature 30 minutes, no light) [%] | Absorbance percentage (450 nm, relative to treatment (1)) ([1]; treatment (4): 1.4 mM, PBS pH 7.0, 455 nm LED 40 mW/cm^2 30 minutes (72 J/cm^2)) [%] | Absorbance percentage (450 nm, relative to treatment (1)) ([1]; treatment (5): 2.8 mM, PBS pH 7.0, room temperature 30 minutes, no light) [%] | Absorbance percentage (450 nm, relative to treatment (1)) ([1]; treatment (6): 2.8 mM, PBS pH 7.0, 455 nm LED 40 mW/cm^2 30 minutes (72 J/cm^2)) [%] | reduction in the number of spores ([2]; control 1: reagent pH 7.0 not irradiated with light) | survival rate (Yeast cells; [6]) | time in which ClO2 radical concentration decreased by about half [3] [h] | survival rate relative to untreated (Candida albicans; as Experiment 1 (pre-generated chlorine dioxide radicals)) | electron transfer activity of the respiratory chain (respiratory chain [4]) | number of spores decreased to ([2]; chlorine dioxide radical concentration 300 μmol/L, room temperature 30 minutes) | electron transfer activity of the respiratory chain (respiratory chain [5]) | concentration of cells after treatment (Yeast cells; [7]) | survival rate relative to untreated (Yeast cells; [7]) |
| --- | --- | --- | --- | --- | --- | --- | --- | --- | --- | --- | --- | --- | --- | --- | --- | --- | --- |
| sodium chlorite | about one tenth | did not decrease | about 89% | ~94 | 97 | 11 | 97 | 6 | not confirmed | did not decrease |  |  |  |  |  |  |  |
| [O][Cl+][O-] [chlorine dioxide radicals] |  |  |  |  |  |  |  |  |  |  | ~2 | about one tenth | reduction | ≤ 10^−6 | reduction | about 2.5×10^7 cells/mL | about one tenth |

— US20220339596A1, “METHOD FOR PRODUCING RADICALS, METHOD FOR STERILIZING SPORES, AND CANCER TREATMENT DRUG” (priority 2019, published 2022)
